The structures appear in SMILES notation. Where only a bound is given, the exact number is not on record here.

The target in assay [1] is T1, DNA topoisomerase 1 (Homo sapiens) (UniProt P11387).
T1 sequence (whole entry): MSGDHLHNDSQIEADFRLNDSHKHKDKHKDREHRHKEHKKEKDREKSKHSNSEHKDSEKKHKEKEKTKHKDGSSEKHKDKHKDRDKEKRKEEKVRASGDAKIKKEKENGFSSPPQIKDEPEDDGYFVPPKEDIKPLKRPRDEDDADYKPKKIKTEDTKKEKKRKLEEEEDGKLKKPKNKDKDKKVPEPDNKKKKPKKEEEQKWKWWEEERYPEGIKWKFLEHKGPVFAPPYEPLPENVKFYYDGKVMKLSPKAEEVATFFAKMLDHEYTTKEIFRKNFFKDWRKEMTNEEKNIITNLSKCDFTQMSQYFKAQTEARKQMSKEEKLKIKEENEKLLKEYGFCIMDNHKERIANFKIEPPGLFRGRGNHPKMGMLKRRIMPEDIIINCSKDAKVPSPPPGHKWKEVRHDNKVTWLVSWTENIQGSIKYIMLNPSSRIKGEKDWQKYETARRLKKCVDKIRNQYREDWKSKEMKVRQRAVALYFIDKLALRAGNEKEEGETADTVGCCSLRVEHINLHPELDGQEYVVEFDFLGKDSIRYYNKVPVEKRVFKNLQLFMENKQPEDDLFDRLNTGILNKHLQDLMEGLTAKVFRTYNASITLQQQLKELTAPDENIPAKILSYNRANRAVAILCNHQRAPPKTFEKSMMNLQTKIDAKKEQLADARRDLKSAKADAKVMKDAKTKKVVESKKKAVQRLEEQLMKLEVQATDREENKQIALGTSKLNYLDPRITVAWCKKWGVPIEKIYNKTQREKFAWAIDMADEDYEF
The experiment in a line: Concentration tested for Top1-mediated DNA cleavage;+: weak activity. It counts as functional.

The next assay deals with Cell line. The experiment in a line: Mean graph midpoint for growth inhibition of all human cancer cell lines. The format is functional.
The target of assay [2] is T1, DNA topoisomerase 1 (Homo sapiens). The assay can be described thus: Concentration tested for Top1-mediated DNA cleavage (concentration taken upto 100 uM). The format is functional.
Assay [3] relates to P388. The experiment in a line: Ratio of the growth inhibition for P388 resistant cells to that of parental cells; Value expressed as RF (resistance factor). The format is functional, Homo sapiens.
The subject of assay [4] is HCT-116. The assay can be described thus: Ratio of the growth inhibition for HCT116 resistant cells to that of parental cells; Value expressed as RF (resistance factor). It counts as functional, Homo sapiens.
Assay [5] has as its system HCT-116. The assay can be described thus: Ratio of the growth inhibition for HCT116 Top1 resistant cells to that of parental cells; Value expressed as RF (resistance factor). The format is functional, Homo sapiens.
A short description of assay [6]: Ratio of the growth inhibition for P388/CPT 45 resistant cells to that of parental cells; Value expressed as RF (resistance factor). It counts as functional, Homo sapiens.
Assay [7] can be described thus: Growth inhibition against Colon HCT116 cell line. It counts as functional, Homo sapiens, HCT-116.
Assay [8] relates to OVCAR-3. The experiment in a line: Growth inhibition against Ovarian OVCAR-3 cell line. The format is functional. As to conditions: Homo sapiens.
Assay [9] has as its system DU-145. The experiment in a line: Growth inhibition against Prostate DU-145 cell line. The format is functional. As to conditions: Homo sapiens.
Assay [10] is described as follows: (§1) Growth inhibition against Breast MDA-MB-435 cell line. As to conditions: Homo sapiens. The format is functional.
The nature of assay [11]: (§2) Growth inhibition against Melanoma UACC-62 cell line. The format is functional, Homo sapiens.
Assay [12] concerns P388. The experiment in a line: Growth inhibition against P388 cell line. The format is functional. As to conditions: Mus musculus.
The subject of assay [13] is HCT-116. The experiment in a line: Growth inhibition against HCT116 cell line. The format is functional. As to conditions: Homo sapiens.
A short description of assay [14]: Growth inhibition against P388 cell line in. It counts as functional.
The subject of assay [15] is HCT-116. The assay can be described thus: Growth inhibition against HCT116 V cell line. The format is functional. As to conditions: Homo sapiens.
Assay [16] is described as follows: Growth inhibition against CNS SF-539 cell line. The format is functional. The settings on record: Homo sapiens.
Assay [17] in a line: Growth inhibition against Renal SN12C cell line. It counts as functional. The settings on record: Homo sapiens.
A further assay deals with HOP-62. The assay can be described thus: Growth inhibition against Lung HOP-62 cell line. It counts as functional. The settings on record: Homo sapiens.
Assay [18] concerns HCT-116. The assay can be described thus: Growth inhibition against HCT116 DNA topoisomerase 1 in (Top1-deficient and parental tumor cells). The format is functional. As to conditions: Homo sapiens.
In assay [19] the test system is HCT-116. The assay can be described thus: Ratio of the growth inhibition for Top1 siRNA cells (HCT116-Top1) to that for the vector-control cells (HCT116-V); Value expressed as RF (resistance factor). The format is functional, Homo sapiens.
The target of assay [20] is T1, DNA topoisomerase 1 (Homo sapiens). The assay can be described thus: Concentration tested for Top1-mediated DNA cleavage (concentration taken upto 100 uM); ++: similar activity as the parent compound 3a. It counts as functional.
Assay [21] has the same target. The assay can be described thus: Concentration tested for Top1-mediated DNA cleavage (concentration taken upto 100 uM);0: no activity. It counts as functional.
The target is the same in assay [22]. The experiment in a line: Concentration tested for Top1-mediated DNA cleavage (concentration taken upto 100 uM); +++: Good activity. It counts as functional.
In a further assay the test system is SF-539. The assay can be described thus: Growth inhibition against CNSSF-539 cell line. It counts as functional. As to conditions: Homo sapiens.
Assay [23] has as its system DU-145. The assay can be described thus: Growth inhibition against ProstateDU-145 cell line. The format is functional. As to conditions: Homo sapiens.
The nature of assay [24]: Growth inhibition against ColonHCT-116 cell line. It counts as functional. The settings on record: Homo sapiens.
In assay [25] the test system is OVCAR-3. The experiment in a line: Growth inhibition against OvarianOVCAR-3 cell line. It counts as functional. The settings on record: Homo sapiens.
The test system of the next assay is UACC-62. Described as §2. It counts as functional. The settings on record: Homo sapiens.
In the next assay the test system is MDA-MB-435. The description is as §1. It counts as functional. The settings on record: Homo sapiens.
In assay [26] the target is T1, DNA topoisomerase 1 (Homo sapiens). The assay can be described thus: Concentration tested for Top1-mediated DNA cleavage (concentration taken upto 100 uM);+: weak activity. The format is functional.

In assay [1], `O=C1c2cc3c(cc2[C@@H]2[C@H]1c1ccc([N+](=O)[O-])cc1C(=O)N2CCCCl)OCO3` yielded a Concentration of 100 µM. For the same molecule, the MGM in the assay on Cell line is 0.018 µM.
Consider `COc1cc2c(cc1OC)[C@H]1C(=O)c3cc4c(cc3[C@H]1N(C)C2=O)OCO4`, for which the Concentration in assay [2] was 100 µM. In addition, the MGM in the assay with Cell line is 5 µM. Also, the RF in the assay with P388 [3] was found to be 1; in the assay with HCT-116 [4], 1; with HCT-116 [5], 35; in assay [6] it was 128; in the assay on HCT-116 [19] it was 7. The GI50 turned out to be 2 µM in assay [7] (Homo sapiens, HCT-116); 6.7 µM with OVCAR-3 [8]; 4.1 µM in the assay with DU-145 [9]; 17 µM in [10]; 0.42 µM in assay [11] (Homo sapiens, UACC-62); 0.00988 µM with P388 [12]. The GI50 with HCT-116 [13] was 0.0599 µM; in assay [14], 1.26 µM; in the assay with HCT-116 [15], 0.418 µM; in assay [16] it was 3.1 µM; in assay [17], 2.1 µM; with HOP-62, 9.4 µM. Besides, the GI50 in the assay with HCT-116 [18] stood at 0.012 µM.
On to `COc1cc2c(cc1OC)[C@@]1(C)C(=O)c3cc4c(cc3[C@H]1N(C)C2=O)OCO4`, for which the MGM with Cell line was 51.3 µM. Also, the GI50 in [7] is 24 µM; in assay [7] (Homo sapiens, HCT-116), 43.5 µM; in assay [10] it was > 100 µM; in [11], 58.1 µM; in assay [11] (Homo sapiens, UACC-62), 82.4 µM; in [16], 96.2 µM. Further, the GI50 in [17] is 26 µM; in the assay with HOP-62, > 100 µM. Further, the Concentration in assay [20] stood at 100 µM.
Regarding `C=CCN1C(=O)c2cc(OC)c(OC)cc2[C@H]2C(=O)c3cc4c(cc3[C@H]21)OCO4`, the Concentration in assay [21] came to 100 µM. In the assay on Cell line, this molecule yielded an MGM of 0.98 µM.
The molecule `O=C1c2cc3c(cc2-c2c1c1ccc([N+](=O)[O-])cc1c(=O)n2CCCCl)OCO3` registered a Concentration in assay [22] of 100 µM. Besides, the MGM with Cell line stood at 0.83 µM.
`COc1cc2c3c(n(C)c(=O)c2cc1OC)-c1cc2c(cc1C3=O)OCO2`: the GI50 in the assay on SF-539 was 41 µM; in the assay on DU-145 [23], 37 µM; in assay [24] it was 35 µM; in the assay on OVCAR-3 [25], 73 µM; in the assay on UACC-62 it was 4.2 µM; in the assay on MDA-MB-435 it was 96 µM. The GI50 in [17] turned out to be 68 µM; with HOP-62, 1.3 µM. In addition, the MGM in the assay with Cell line stood at 20 µM. Further, the Concentration in assay [20] came to 100 µM.
`C=CCn1c2c(c3cc(OC)c(OC)cc3c1=O)C(=O)c1cc3c(cc1-2)OCO3`: the Concentration in [26] is 100 µM. This molecule also registered an MGM in the assay on Cell line of 4.16 µM.

The values above are taken from ChEMBL document CHEMBL1145275, “Dihydroindenoisoquinolines function as prodrugs of indenoisoquinolines” (2005).
